Experiment [1] relates to Arabidopsis thaliana plants. Put plainly: SOA1 phenotypic analysis of herbicide-treated Arabidopsis plants (MIC, Tmic, leaf traits). Format: in vivo. The note with it: for Characteristic symptoms (phenotype): herbicide treated Arabidopsis; for Dev. leafCurling / Dev. leafTwisting / Dev. matureLeafAnthocyanins / Dev. matureLeafChlorosis / Dev. matureLeafNecrosis / Dev. newLeafAnthocyanins / Dev. newLeafChlorosis / Dev. newLeafNecrosis / Dev. pointedLeaves: numeric value standardized to mock treated; for Dev. leafWidth: numeric value standardized to the average response for the mock treated tissues; for Symptom Class: three-week-old Arabidopsis plants treated with herbicide, phenotype classes of FIG. 12.

Another experiment deals with Arabidopsis thaliana. Put plainly: MOA1 biochemical (metabolite) profiling by LC-MS and GC-MS. To be noted: MOA1; 20 min and 1 hr after spraying.
The subject of experiment [2] is N-starved Arabidopsis plants. To be noted: nitrate addition to N-starved Arabidopsis; cited from earlier work.

The values below come from US20040019430A1, “Methods and systems for analyzing complex biological systems” (priority 2001, published 2004).

Consider `c1cc[n+]2c(c1)-c1cccc[n+]1CC2` [Diquat], for which, in experiment [1], the “Dev. tMic” value stood at 2; the “Characteristic symptoms (phenotype)” value was “rapid and widespread leaf necrosis”; the “Dev. leafCurling” value was 2; the “Dev. leafTwisting” value came to 0. Further, in experiment [1], the “Dev. matureLeafAnthocyanins” value was found to be 0, the “Dev. matureLeafChlorosis” value is on record as 1, the “Dev. matureLeafNecrosis” value is listed as 4 and the “Dev. newLeafAnthocyanins” value was 0. In experiment [1], the “Dev. newLeafChlorosis” value is 1, the “Dev. newLeafNecrosis” value was 4, the “Dev. pointedLeaves” value is reported as 1 and the “Dev. leafWidth” value is given as −2. For the same compound, the “Symptom Class” value in experiment [1] is recorded as 7.
On to `CC(C)N1C(=O)c2ccccc2NS1(=O)=O` [Bentazon], for which, in experiment [1], the “Dev. tMic” value is reported as 1; the “Characteristic symptoms (phenotype)” value is “rapid and widespread leaf necrosis”; the “Dev. leafCurling” value is reported as 2; the “Dev. leafTwisting” value is 0. Further, in experiment [1], the “Dev. matureLeafAnthocyanins” value is 0, the “Dev. matureLeafChlorosis” value turned out to be 2, the “Dev. matureLeafNecrosis” value came to 4 and the “Dev. newLeafAnthocyanins” value is 0. Besides, in experiment [1], the “Dev. newLeafChlorosis” value was determined as 2, the “Dev. newLeafNecrosis” value worked out at 4, the “Dev. pointedLeaves” value worked out at 1 and the “Dev. leafWidth” value is −2.
In the case of `O=C(O)c1cc(Oc2ccc(C(F)(F)F)cc2Cl)ccc1[N+](=O)[O-]` [Acifluorfen], in experiment [1], the “Dev. tMic” value amounted to 1, the “Characteristic symptoms (phenotype)” value is on record as “Necrotic leaf flecks”, the “Dev. leafCurling” value was 1 and the “Dev. leafTwisting” value was found to be 0. Further, in experiment [1], the “Dev. matureLeafAnthocyanins” value is given as 0, the “Dev. matureLeafChlorosis” value was 0, the “Dev. matureLeafNecrosis” value is on record as 1 and the “Dev. newLeafAnthocyanins” value is listed as 0. Further, in experiment [1], the “Dev. newLeafChlorosis” value is 0, the “Dev. newLeafNecrosis” value is 3, the “Dev. pointedLeaves” value was found to be 0 and the “Dev. leafWidth” value was 0.
As for `O=C(O)Cn1c(=O)sc2cccc(Cl)c21` [Benazolin], in experiment [1], the “Dev. tMic” value amounted to 2, the “Dev. leafCurling” value worked out at 2, the “Dev. leafTwisting” value is reported as 2 and the “Dev. matureLeafAnthocyanins” value stood at 0. Moreover, in experiment [1], the “Dev. matureLeafChlorosis” value stood at 0, the “Dev. matureLeafNecrosis” value was 0, the “Dev. newLeafAnthocyanins” value came out at 0 and the “Dev. newLeafChlorosis” value was 0. Also, in experiment [1], the “Dev. newLeafNecrosis” value is 0, the “Dev. pointedLeaves” value was found to be 0 and the “Dev. leafWidth” value is given as −2.
For the compound `COc1nc(C)nc(NC(=O)NS(=O)(=O)c2ccccc2Cl)n1` [Chlorsulfuron], in experiment [1], the “Dev. tMic” value came to 2, the “Characteristic symptoms (phenotype)” value is reported as “anthocyanin accumulation in the older leaves accompanied by chlorosis of the newly emerging leaves”, the “Dev. leafCurling” value is 1 and the “Dev. leafTwisting” value is reported as 1. Besides, in experiment [1], the “Dev. matureLeafAnthocyanins” value was 3, the “Dev. matureLeafChlorosis” value was 2, the “Dev. matureLeafNecrosis” value amounted to 0 and the “Dev. newLeafAnthocyanins” value is reported as 0. In addition, in experiment [1], the “Dev. newLeafChlorosis” value was determined as 2, the “Dev. newLeafNecrosis” value turned out to be 0, the “Dev. pointedLeaves” value stood at 0 and the “Dev. leafWidth” value is reported as −1.
As to `CSc1nnc(C(C)(C)C)c(=O)n1N` [Metribuzin], in experiment [1], the “Dev. tMic” value was 1; the “Characteristic symptoms (phenotype)” value is “rapid and widespread leaf necrosis”; the “Dev. leafCurling” value was found to be 1; the “Dev. leafTwisting” value stood at 0. Also, in experiment [1], the “Dev. matureLeafAnthocyanins” value was found to be 0, the “Dev. matureLeafChlorosis” value stood at 2, the “Dev. matureLeafNecrosis” value is reported as 4 and the “Dev. newLeafAnthocyanins” value was determined as 0. Further, in experiment [1], the “Dev. newLeafChlorosis” value turned out to be 2, the “Dev. newLeafNecrosis” value is on record as 4, the “Dev. pointedLeaves” value was found to be 1 and the “Dev. leafWidth” value is −2.
As for `C[n+]1ccc(-c2cc[n+](C)cc2)cc1` [Paraquat], in experiment [1], the “Dev. tMic” value is listed as 2; the “Characteristic symptoms (phenotype)” value was “rapid and widespread leaf necrosis”; the “Dev. leafCurling” value is on record as 2; the “Dev. leafTwisting” value was found to be 0. For the same compound, in experiment [1], the “Dev. matureLeafAnthocyanins” value came to 0, the “Dev. matureLeafChlorosis” value came to 1, the “Dev. matureLeafNecrosis” value is on record as 4 and the “Dev. newLeafAnthocyanins” value is 0. Moreover, in experiment [1], the “Dev. newLeafChlorosis” value is given as 1, the “Dev. newLeafNecrosis” value is 4, the “Dev. pointedLeaves” value is listed as 1 and the “Dev. leafWidth” value is reported as −1. Also, the “Symptom Class” value in experiment [1] is reported as 7.
As for `COc1c(Cl)ccc(Cl)c1C(=O)O` [Dicamba], in experiment [1], the “Dev. tMic” value is 2, the “Dev. leafCurling” value is given as 2, the “Dev. leafTwisting” value was determined as 2 and the “Dev. matureLeafAnthocyanins” value is 0. In addition, in experiment [1], the “Dev. matureLeafChlorosis” value was 2, the “Dev. matureLeafNecrosis” value is reported as 0, the “Dev. newLeafAnthocyanins” value is given as 0 and the “Dev. newLeafChlorosis” value was 0. Besides, in experiment [1], the “Dev. newLeafNecrosis” value amounted to 0, the “Dev. pointedLeaves” value came to 0 and the “Dev. leafWidth” value was −2.
Turning to `CNc1cnn(-c2cccc(C(F)(F)F)c2)c(=O)c1Cl` [Norfluazon, norflurazon], in the experiment with Arabidopsis thaliana, the “Stress-related (commonly regulated) metabolites” value was “Only a few, if any, stress-related metabolites were observed”.
`O=[N+]([O-])O` [Nitrate, nitrate]: in experiment [2], the “Nitrate Regulation of Glutamate synthetase” value is “↑”, the “Nitrate Regulation of Glutamine synthetase (2)” value is recorded as “↑”, the “Nitrate Regulation of MADs Box (2)” value is “↓” and the “Nitrate Regulation of MYB transcription factor” value is recorded as “↑”. Also, in experiment [2], the “Nitrate Regulation of Malate Dehydrogenase” value was “↑”, the “Nitrate Regulation of Nitrate transporter” value is listed as “↑”, the “Nitrate Regulation of Phosphate transporter” value is recorded as “↑” and the “Nitrate Regulation of Transaldolase” value is listed as “↑”. Also, the “Nitrate Regulation of Transketolase” value in experiment [2] is “↑”.
`CN(C)C(=O)Nc1ccc(Cl)c(Cl)c1` [Diuron]: in experiment [1], the “Dev. tMic” value is listed as 1; the “Characteristic symptoms (phenotype)” value is “rapid and widespread leaf necrosis”; the “Dev. leafCurling” value was determined as 1; the “Dev. leafTwisting” value came out at 0. Besides, in experiment [1], the “Dev. matureLeafAnthocyanins” value worked out at 0, the “Dev. matureLeafChlorosis” value amounted to 2, the “Dev. matureLeafNecrosis” value is recorded as 4 and the “Dev. newLeafAnthocyanins” value turned out to be 0. In experiment [1], the “Dev. newLeafChlorosis” value was 2, the “Dev. newLeafNecrosis” value was 4, the “Dev. pointedLeaves” value is recorded as 1 and the “Dev. leafWidth” value was −2. For the same compound, the “Symptom Class” value in experiment [1] came to 7.
In the case of `COC(=O)c1cc(Oc2ccc(Cl)cc2Cl)ccc1[N+](=O)[O-]` [Bifenox], in experiment [1], the “Dev. tMic” value worked out at 1, the “Characteristic symptoms (phenotype)” value was “Necrotic leaf flecks”, the “Dev. leafCurling” value is 1 and the “Dev. leafTwisting” value was found to be 0. In experiment [1], the “Dev. matureLeafAnthocyanins” value worked out at 0, the “Dev. matureLeafChlorosis” value is 0, the “Dev. matureLeafNecrosis” value came out at 1 and the “Dev. newLeafAnthocyanins” value came out at 0. In addition, in experiment [1], the “Dev. newLeafChlorosis” value came out at 0, the “Dev. newLeafNecrosis” value came to 3, the “Dev. pointedLeaves” value is given as 0 and the “Dev. leafWidth” value is 0.
With `CCc1cnc(C2=NC(C)(C(C)C)C(=O)N2)c(C(=O)O)c1` (stereo not shown) [Imazethapyr], in experiment [1], the “Dev. tMic” value was determined as 2, the “Characteristic symptoms (phenotype)” value was “anthocyanin accumulation in the older leaves accompanied by chlorosis of the newly emerging leaves”, the “Dev. leafCurling” value is on record as 1 and the “Dev. leafTwisting” value turned out to be 1. Besides, in experiment [1], the “Dev. matureLeafAnthocyanins” value stood at 3, the “Dev. matureLeafChlorosis” value is 0, the “Dev. matureLeafNecrosis” value turned out to be 0 and the “Dev. newLeafAnthocyanins” value is on record as 0. Besides, in experiment [1], the “Dev. newLeafChlorosis” value is on record as 2, the “Dev. newLeafNecrosis” value turned out to be 0, the “Dev. pointedLeaves” value was determined as 0 and the “Dev. leafWidth” value turned out to be 0.
For the compound `O=C(O)COc1ccc(Cl)cc1Cl` [2,4-D], in experiment [1], the “Dev. tMic” value is reported as 2, the “Dev. leafCurling” value was determined as 1, the “Dev. leafTwisting” value is reported as 2 and the “Dev. matureLeafAnthocyanins” value amounted to 1. In addition, in experiment [1], the “Dev. matureLeafChlorosis” value is 2, the “Dev. matureLeafNecrosis” value stood at 0, the “Dev. newLeafAnthocyanins” value stood at 0 and the “Dev. newLeafChlorosis” value came to 1. Moreover, in experiment [1], the “Dev. newLeafNecrosis” value was 0, the “Dev. pointedLeaves” value was found to be 0, the “Dev. leafWidth” value was −1 and the “Symptom Class” value amounted to 5.
With `CCNc1nc(Cl)nc(NC(C)C)n1` [Atrazine], in experiment [1], the “Dev. tMic” value turned out to be 1; the “Characteristic symptoms (phenotype)” value was “rapid and widespread leaf necrosis”; the “Dev. leafCurling” value worked out at 1; the “Dev. leafTwisting” value is on record as 0. Also, in experiment [1], the “Dev. matureLeafAnthocyanins” value is on record as 0, the “Dev. matureLeafChlorosis” value came to 1, the “Dev. matureLeafNecrosis” value amounted to 4 and the “Dev. newLeafAnthocyanins” value was 0. Further, in experiment [1], the “Dev. newLeafChlorosis” value is 1, the “Dev. newLeafNecrosis” value is 4, the “Dev. pointedLeaves” value is listed as 1 and the “Dev. leafWidth” value is −1.
Regarding `CCc1cccc(C)c1N(C(=O)CCl)C(C)COC` (stereo not shown) [Metolachlor], in experiment [1], the “Dev. tMic” value is on record as 2, the “Dev. leafCurling” value came to 2, the “Dev. leafTwisting” value is recorded as 1 and the “Dev. matureLeafAnthocyanins” value was found to be 0. Moreover, in experiment [1], the “Dev. matureLeafChlorosis” value is given as 0, the “Dev. matureLeafNecrosis” value is on record as 3, the “Dev. newLeafAnthocyanins” value amounted to 0 and the “Dev. newLeafChlorosis” value amounted to 0. In experiment [1], the “Dev. newLeafNecrosis” value is on record as 3, the “Dev. pointedLeaves” value is reported as 1 and the “Dev. leafWidth” value is listed as −1.
